{"source": "the supplement of paper PMC10307832", "experiment_in_all_cases": "relative viability (nuclei count vs DMSO), 5 days (fraction); higher = more cells survive", "key": {"201T": {"tested_on": "201T", "summary_of_the_method": "(§1)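 A single step with final 0.05% Triton X-100, 1% formaldehyde and 1 ug/ml Hoechst fixed the cells and stained nuclei 5 days after treatment. Lung cancer cell lines in 1536-well plates had been treated by pin tool the day after seeding with one drug alone or a fixed anchor-drug dose plus five library-drug doses (not always all listed) in √10 steps, and nuclei were counted on 4× images. Relative viability is the ratio of nuclei in treated wells to nuclei in vehicle wells, taken as the median of duplicate plates.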"}, "NCI-H2023": {"tested_on": "NCI-H2023", "summary_of_the_method": "as §1"}, "NCI-H1792": {"tested_on": "NCI-H1792", "summary_of_the_method": "as §1"}, "NCI-H2087": {"tested_on": "NCI-H2087", "summary_of_the_method": "as §1"}, "NCI-H1915": {"tested_on": "NCI-H1915", "summary_of_the_method": "as §1"}, "NCI-H441": {"tested_on": "NCI-H441", "summary_of_the_method": "as §1"}, "PC-3 [JPC-3]": {"tested_on": "PC-3 [JPC-3]", "summary_of_the_method": "as §1"}, "LCLC-97TM1": {"tested_on": "LCLC-97TM1", "summary_of_the_method": "as §1"}, "NCI-H661": {"tested_on": "NCI-H661", "summary_of_the_method": "as §1"}, "NCI-H596": {"tested_on": "NCI-H596", "summary_of_the_method": "as §1"}, "NCI-H520": {"tested_on": "NCI-H520", "summary_of_the_method": "as §1"}, "BEN": {"tested_on": "BEN", "summary_of_the_method": "as §1"}, "NCI-H1651": {"tested_on": "NCI-H1651", "summary_of_the_method": "as §1"}, "LC-2-ad": {"tested_on": "LC-2-ad", "summary_of_the_method": "as §1"}, "A-427": {"tested_on": "A-427", "summary_of_the_method": "as §1"}, "NCI-H1650": {"tested_on": "NCI-H1650", "summary_of_the_method": "as §1"}, "NCI-H650": {"tested_on": "NCI-H650", "summary_of_the_method": "as §1"}, "NCI-H727": {"tested_on": "NCI-H727", "summary_of_the_method": "as §1"}, "ABC-1": {"tested_on": "ABC-1", "summary_of_the_method": "as §1"}, "NCI-H460": {"tested_on": "NCI-H460", "summary_of_the_method": "as §1"}, "H3255": {"tested_on": "H3255", "summary_of_the_method": "as §1"}, "NCI-H1944": {"tested_on": "NCI-H1944", "summary_of_the_method": "as §1"}}, "data": [{"smiles": "O=C(O)c1ccc(-c2c[nH]c3ncc(-c4ccccc4)cc23)cc1C1CCCC1", "note": "+ Nc1ncn([C@H]2C[C@H](O)[C@@H](CO)O2)c(=O)n1 [Decitabine] (partner 2 µM)", "values": [{"measurement": "relative viability", "setting": "201T; first compound 0.04 µM", "result": 0.862}, {"measurement": "relative viability", "setting": "201T; first compound 0.1265 µM", "result": 0.808}, {"measurement": "relative viability", "setting": "201T; first compound 0.4 µM", "result": 0.805}, {"measurement": "relative viability", "setting": "201T; first compound 1.265 µM", "result": 0.811}, {"measurement": "relative viability", "setting": "NCI-H2023; first compound 0.04 µM", "result": 0.191}, {"measurement": "relative viability", "setting": "NCI-H2023; first compound 0.1265 µM", "result": 0.243}, {"measurement": "relative viability", "setting": "NCI-H2023; first compound 0.4 µM", "result": 0.216}, {"measurement": "relative viability", "setting": "NCI-H2023; first compound 1.265 µM", "result": 0.17}, {"measurement": "relative viability", "setting": "NCI-H1792; first compound 0.04 µM", "result": 0.515}, {"measurement": "relative viability", "setting": "NCI-H1792; first compound 0.1265 µM", "result": 0.51}, {"measurement": "relative viability", "setting": "NCI-H1792; first compound 0.4 µM", "result": 0.543}, {"measurement": "relative viability", "setting": "NCI-H1792; first compound 1.265 µM", "result": 0.457}, {"measurement": "relative viability", "setting": "NCI-H2087; first compound 0.04 µM", "result": 0.263}, {"measurement": "relative viability", "setting": "NCI-H2087; first compound 0.1265 µM", "result": 0.273}, {"measurement": "relative viability", "setting": "NCI-H2087; first compound 0.4 µM", "result": 0.351}, {"measurement": "relative viability", "setting": "NCI-H2087; first compound 1.265 µM", "result": 0.364}, {"measurement": "relative viability", "setting": "NCI-H1915; first compound 0.04 µM", "result": 0.241}, {"measurement": "relative viability", "setting": "NCI-H1915; first compound 0.1265 µM", "result": 0.229}, {"measurement": "relative viability", "setting": "NCI-H1915; first compound 0.4 µM", "result": 0.259}, {"measurement": "relative viability", "setting": "NCI-H1915; first compound 1.265 µM", "result": 0.251}, {"measurement": "relative viability", "setting": "NCI-H441; first compound 0.04 µM", "result": 0.221}, {"measurement": "relative viability", "setting": "NCI-H441; first compound 0.1265 µM", "result": 0.254}, {"measurement": "relative viability", "setting": "NCI-H441; first compound 0.4 µM", "result": 0.251}, {"measurement": "relative viability", "setting": "NCI-H441; first compound 1.265 µM", "result": 0.251}, {"measurement": "relative viability", "setting": "PC-3 [JPC-3]; first compound 0.04 µM", "result": 0.824}, {"measurement": "relative viability", "setting": "PC-3 [JPC-3]; first compound 0.1265 µM", "result": 0.835}, {"measurement": "relative viability", "setting": "PC-3 [JPC-3]; first compound 0.4 µM", "result": 0.939}, {"measurement": "relative viability", "setting": "PC-3 [JPC-3]; first compound 1.265 µM", "result": 0.74}, {"measurement": "relative viability", "setting": "LCLC-97TM1; first compound 0.04 µM", "result": 0.254}, {"measurement": "relative viability", "setting": "LCLC-97TM1; first compound 0.1265 µM", "result": 0.226}, {"measurement": "relative viability", "setting": "LCLC-97TM1; first compound 0.4 µM", "result": 0.207}, {"measurement": "relative viability", "setting": "LCLC-97TM1; first compound 1.265 µM", "result": 0.195}, {"measurement": "relative viability", "setting": "NCI-H661; first compound 0.04 µM", "result": 0.518}, {"measurement": "relative viability", "setting": "NCI-H661; first compound 0.1265 µM", "result": 0.586}, {"measurement": "relative viability", "setting": "NCI-H661; first compound 0.4 µM", "result": 0.534}, {"measurement": "relative viability", "setting": "NCI-H661; first compound 1.265 µM", "result": 0.524}, {"measurement": "relative viability", "setting": "NCI-H596; first compound 0.04 µM", "result": 1.05}, {"measurement": "relative viability", "setting": "NCI-H596; first compound 0.1265 µM", "result": 0.933}, {"measurement": "relative viability", "setting": "NCI-H596; first compound 0.4 µM", "result": 1.01}, {"measurement": "relative viability", "setting": "NCI-H596; first compound 1.265 µM", "result": 1.74}, {"measurement": "relative viability", "setting": "NCI-H520; first compound 0.04 µM", "result": 0.493}, {"measurement": "relative viability", "setting": "NCI-H520; first compound 0.1265 µM", "result": 0.489}, {"measurement": "relative viability", "setting": "NCI-H520; first compound 0.4 µM", "result": 0.5}, {"measurement": "relative viability", "setting": "NCI-H520; first compound 1.265 µM", "result": 0.358}, {"measurement": "relative viability", "setting": "BEN; first compound 0.04 µM", "result": 0.621}, {"measurement": "relative viability", "setting": "BEN; first compound 0.1265 µM", "result": 0.901}, {"measurement": "relative viability", "setting": "BEN; first compound 0.4 µM", "result": 0.692}, {"measurement": "relative viability", "setting": "BEN; first compound 1.265 µM", "result": 0.585}, {"measurement": "relative viability", "setting": "NCI-H1651; first compound 0.04 µM", "result": 0.477}, {"measurement": "relative viability", "setting": "NCI-H1651; first compound 0.1265 µM", "result": 0.616}, {"measurement": "relative viability", "setting": "NCI-H1651; first compound 0.4 µM", "result": 0.57}, {"measurement": "relative viability", "setting": "NCI-H1651; first compound 1.265 µM", "result": 0.54}, {"measurement": "relative viability", "setting": "LC-2-ad; first compound 0.04 µM", "result": 0.718}, {"measurement": "relative viability", "setting": "LC-2-ad; first compound 0.1265 µM", "result": 0.756}, {"measurement": "relative viability", "setting": "LC-2-ad; first compound 0.4 µM", "result": 0.737}, {"measurement": "relative viability", "setting": "LC-2-ad; first compound 1.265 µM", "result": 0.651}, {"measurement": "relative viability", "setting": "A-427; first compound 0.04 µM", "result": 0.59}, {"measurement": "relative viability", "setting": "A-427; first compound 0.1265 µM", "result": 0.594}, {"measurement": "relative viability", "setting": "A-427; first compound 0.4 µM", "result": 0.5}, {"measurement": "relative viability", "setting": "A-427; first compound 1.265 µM", "result": 0.475}, {"measurement": "relative viability", "setting": "NCI-H1650; first compound 0.04 µM", "result": 0.409}, {"measurement": "relative viability", "setting": "NCI-H1650; first compound 0.1265 µM", "result": 0.345}, {"measurement": "relative viability", "setting": "NCI-H1650; first compound 0.4 µM", "result": 0.404}, {"measurement": "relative viability", "setting": "NCI-H1650; first compound 1.265 µM", "result": 0.263}, {"measurement": "relative viability", "setting": "NCI-H650; first compound 0.04 µM", "result": 0.284}, {"measurement": "relative viability", "setting": "NCI-H650; first compound 0.1265 µM", "result": 0.317}, {"measurement": "relative viability", "setting": "NCI-H650; first compound 0.4 µM", "result": 0.329}, {"measurement": "relative viability", "setting": "NCI-H650; first compound 1.265 µM", "result": 0.274}, {"measurement": "relative viability", "setting": "NCI-H727; first compound 0.04 µM", "result": 0.77}, {"measurement": "relative viability", "setting": "NCI-H727; first compound 0.1265 µM", "result": 0.848}, {"measurement": "relative viability", "setting": "NCI-H727; first compound 0.4 µM", "result": 0.818}, {"measurement": "relative viability", "setting": "NCI-H727; first compound 1.265 µM", "result": 0.788}, {"measurement": "relative viability", "setting": "ABC-1; first compound 0.04 µM", "result": 1.1}, {"measurement": "relative viability", "setting": "ABC-1; first compound 0.1265 µM", "result": 1.1}, {"measurement": "relative viability", "setting": "ABC-1; first compound 0.4 µM", "result": 0.891}, {"measurement": "relative viability", "setting": "ABC-1; first compound 1.265 µM", "result": 0.931}, {"measurement": "relative viability", "setting": "NCI-H460; first compound 0.04 µM", "result": 0.521}, {"measurement": "relative viability", "setting": "NCI-H460; first compound 0.1265 µM", "result": 0.531}, {"measurement": "relative viability", "setting": "NCI-H460; first compound 0.4 µM", "result": 0.468}, {"measurement": "relative viability", "setting": "NCI-H460; first compound 1.265 µM", "result": 0.459}, {"measurement": "relative viability", "setting": "H3255; first compound 0.04 µM", "result": 0.64}, {"measurement": "relative viability", "setting": "H3255; first compound 0.1265 µM", "result": 0.477}, {"measurement": "relative viability", "setting": "H3255; first compound 0.4 µM", "result": 0.513}, {"measurement": "relative viability", "setting": "H3255; first compound 1.265 µM", "result": 0.495}, {"measurement": "relative viability", "setting": "NCI-H1944; first compound 0.04 µM", "result": 0.448}, {"measurement": "relative viability", "setting": "NCI-H1944; first compound 0.1265 µM", "result": 0.437}, {"measurement": "relative viability", "setting": "NCI-H1944; first compound 0.4 µM", "result": 0.423}, {"measurement": "relative viability", "setting": "NCI-H1944; first compound 1.265 µM", "result": 0.402}]}]}
